Test [1] relates to methicillin-resistant S. aureus (ATCC 33591) (MRSA). Description: Antimicrobial assay (MIC). The class given is cell-based. The settings on record: Staphylococcus aureus. How it is done:
(§1) Antimicrobial and anti-cancer tests were performed as in [80].

Test [2] relates to multi-drug resistant E. coli SMS-3-4 (ATCC BAA-1743) (MDREC). Description: Antimicrobial assay (MIC). The format is cell-based. The settings on record: Escherichia coli, ATCCBAA1743. The method, then:
as §1

The subject of test [3] is vancomycin-resistant E. faecium (ATCC700221) (VREF). Description: Antimicrobial assay (MIC). The format is cell-based. The following applies: Enterococcus faecium, ATCC700221. How it is done: as §1
Test [4] concerns E. coli strain DH5α. The experiment in a line: Antimicrobial assay (MIC). The format is cell-based. The settings on record: Escherichia coli, Minimum inhibitory concentration required for 90% clearance. The method, then: as §1
Test [5] deals with HCT-116 colon carcinoma cell line. The experiment in a line: Cytotoxic assay on cancer cell line. The class given is cell-based. The following applies: Homo sapiens, HCT-116, inhibitory concentration for 50% growth inhibition; read-out: HCT-116 (IC-50). How it is done: as §1
Test [6] has as its target E. coli dihydrofolate reductase (DHFR) (Escherichia coli, UniProt P0ABQ4). Description: biochemical. The class given is binding. The settings on record: Table S3. In a few lines: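 Thermal unfolding of 10 μM protein with 1 mM predicted ligand and 5 X Sypro orange in 100 mM HEPES pH 7.3, 150 mM NaCl, qPCR read-out; dye/drug-dye backgrounds subtracted. Tm from Boltzmann fit of single sigmoidal transitions; approximate KD estimated at Tm from van't Hoff enthalpy, ΔCp ignored.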

The subject of test [7] is several cancer cell lines including melanoma, prostrate, colon, and breast. Details: method as in PMID 22140110. The settings on record: potency not revealed; PubChem CID 24198955; cited from earlier work.
Test [8] deals with T1, carbonic anhydrase I from human RBC (Homo sapiens, UniProt P00915).
T1 construct: carbonic anhydrase I from human RBC; purchased Sigma-Aldrich; host or cells: human RBC
The settings on record: read-out: dissociation constant, reported values; cited from earlier work.

Test [9] addresses T1, carbonic anhydrase I from human RBC. The experiment in a line: Thermal melt assay standardization. The format is binding. How it is done: (§2) High throughput thermal shift assays were carried out following established guidelines (Additional file 1: Table S1). Protein melting curves were obtained from samples aliquoted in 96-well plates using a RealPlex quantitative PCR instrument from Eppendorf (Eppendorf, NY, USA), with Sypro orange dye from Invitrogen as the fluorescent probe. A uniform final concentration of 5 X (supplied as a 5000 X stock solution) was used in all experiments. […] For standardization, different buffers and pH were checked. Thereafter, 100 mM HEPES pH 7.3 and 150 mM NaCl were used in all unfolding experiments. The volume of each reaction was 20 μl, and appropriate dye and protein controls were included. All experiments were done with a minimum of two replicates, with the mean value considered for further analysis. Several drugs/small molecules interact with Sypro orange and lead to aberrant signal enhancements. An additional control to rule out drug-dye interaction was carried out with all the constituents kept constant except for the protein of interest. The protein/protein-drug curves were reported after subtracting the respective dye alone/drug-dye curves.
(§3) Thermal melt assays were standardized on several protein/ligand pairs with reported Tm shifts. Thermal melt curves for citrate synthase were generated with both cognate ligand oxaloacetate (cat. no. O4126) and non-cognate (and nonbinding) NADH. The protein concentration was 5 µM. Titration of oxaloacetate (10 µM-200 µM) was carried out to establish the concentration dependence of the melting temperature. Thermal melting of malic dehydrogenase was performed with its cognate ligand NADH (cat no. N8129) and non-cognate ligand oxaloacetate. Studies of the concentration dependence of NADH (1 mM-5 mM) on melting temperature shifts for malic dehydrogenase at 5 µM and 10 µM concentrations, respectively, were also performed.

Test [10] has as its target T2, pig heart malic dehydrogenase (malate dehydrogenase) (Sus scrofa, UniProt P00346).
T2 construct: pig heart malic dehydrogenase were obtained from Sigma-Aldrich; purchased Sigma-Aldrich; host or cells: pig heart
T2 sequence (P00346 25-338): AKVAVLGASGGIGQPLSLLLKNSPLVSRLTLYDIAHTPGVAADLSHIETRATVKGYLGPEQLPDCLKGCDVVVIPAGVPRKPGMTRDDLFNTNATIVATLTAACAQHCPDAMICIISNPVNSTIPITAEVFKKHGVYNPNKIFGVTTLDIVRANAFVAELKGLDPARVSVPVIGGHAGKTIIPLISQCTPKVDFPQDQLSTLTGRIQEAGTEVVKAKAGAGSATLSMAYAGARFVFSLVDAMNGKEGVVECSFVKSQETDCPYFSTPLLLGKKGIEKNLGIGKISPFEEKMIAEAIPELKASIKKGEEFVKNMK
The experiment in a line: Thermal melt assay standardization. The format is binding. The settings on record: read-out: Tm shift. How it is done:
as §2, §3

≈ marks a conversion by molar mass, not a printed value. Read-outs that look alike come from different tables or passages of the source.

This is an account of results in publication PMC4038399, “Experimental validation of [sequence]^comb virtual ligand screening results for eight proteins yields novel nanomolar and micromolar binders” (Journal of Cheminformatics, 2014).

T1 sequence (P00915 whole entry): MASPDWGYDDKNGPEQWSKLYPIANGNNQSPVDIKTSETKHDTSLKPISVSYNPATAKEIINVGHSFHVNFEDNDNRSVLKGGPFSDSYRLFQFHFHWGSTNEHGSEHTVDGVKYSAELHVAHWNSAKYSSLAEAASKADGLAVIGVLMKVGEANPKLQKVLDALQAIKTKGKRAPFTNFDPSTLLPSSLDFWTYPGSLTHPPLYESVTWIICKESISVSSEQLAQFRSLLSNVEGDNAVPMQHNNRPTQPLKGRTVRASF
Chain of E. coli dihydrofolate reductase (DHFR) (P0ABQ4 whole entry): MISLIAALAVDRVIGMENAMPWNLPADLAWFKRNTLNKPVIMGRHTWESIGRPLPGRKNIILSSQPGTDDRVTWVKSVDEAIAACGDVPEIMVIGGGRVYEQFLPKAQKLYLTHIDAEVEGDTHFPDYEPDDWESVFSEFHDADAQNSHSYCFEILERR

`Nc1nc(N)c2c(ccc3[nH]ccc32)n1` [NSC 339578, 7H-Pyrrolo(3,2-f) quinazoline-1,3-diamine, reference compound]: the minimum inhibitory concentration (MIC) is 31.2 µg/mL (≈ 157 µM) in test [1], 250 µg/mL (≈ 1250 µM) in test [2], 31.2 µg/mL (≈ 157 µM) in [3] and 62.5 µg/mL (≈ 314 µM) in test [4]. In addition, the IC50 in test [5] came to 6.11 µg/mL (≈ 30.7 µM). Moreover, in test [6] (computed from the thermal shifts obtained, read-out: KD (Approx)), the Kd was around 115 nM. For the same compound, the “Q (quality score)” value in test [6] (ratio ΔFmelt/ΔFtotal of the melting curve) came out at 1.4.
`Nc1ccc(Cn2ccc3c4c(N)nc(N)nc4ccc32)cc1` [NSC 309401, 7-[(4-aminophenyl)methyl]-7Hpyrrolo [3,2-f] quinazoline-1,3-diamine]: the MIC amounted to 31.2 µg/mL (≈ 103 µM) in test [1], 125 µg/mL (≈ 411 µM) in test [2], 31.2 µg/mL (≈ 103 µM) in test [3] and 7.8 µg/mL (≈ 25.6 µM) in test [4]. Further, the IC50 in [5] was determined as 0.13 µg/mL (≈ 0.427 µM). The “activity against cancer cell lines, in words” value in [7] was “has activity”.
As for `NS(=O)(=O)C(F)(F)F` [TFMSA, trifluoromethane- sulfonamide], the Kd in test [8] is 1000 to 2170 nM. Further, in test [9] (read-out: Tm shift), the ΔTm at 500 µM was 7.2 °C, the ΔTm at 1000 µM amounted to 9 °C and the ΔTm at 10000 µM turned out to be 12.3 °C. Further, the Kd in [9] (read-out: calculated approximate dissociation constants) is 770 to 2290 nM.
Take `NC(=O)C1=CN([C@@H]2O[C@H](COP(=O)(O)OP(=O)(O)OC[C@H]3O[C@@H](n4cnc5c(N)ncnc54)[C@H](O)[C@@H]3O)[C@@H](O)[C@H]2O)C=CC1` [NADH, nicotinamide adenine dinucleotide]: in test [10] (1 mM NADH), the ΔTm at 1000 µM was found to be 11 °C. In addition, the ΔTm at 10000 µM in [10] (10 mM NADH) came to 17 °C.

The term MIC denotes the lowest concentration found to suppress growth. High values mean a need for much substance, low ones inhibition by little substance.
